Results reported in patent US12594264B2, “Modulators of alpha-synuclein proteolysis and associated methods of use” (Arvinas Operations, Inc., priority 2018, dated 2026).
Where a name gives a salt, the structure may show the parent alone.

The molecules below were run against T1, sarkosyl insoluble (SI) α-synuclein (human α-SYN A53T) (Homo sapiens, UniProt P37840, A53T) (assay: MJFF-14-6-4-2 conformation specific ELISA of sarkosyl insoluble α-synuclein after compound treatment). Details: 1 μM compound; protein remaining relative to DMSO control; PFF induced A53T α-synuclein overexpressing HEK293 cells; read-out: Protein Degradation at 1 μM.
T1 construct: expressed in transfected cells
Type: cell-based
Description: Targeted degradation of sarkosyl insoluble (SI) α-synuclein via exemplary bifunctional compounds was assessed by MJFF-14-6-4-2 conformation specific ELISA following treatment of PFF induced A53T α-synuclein overexpressing HEK293 cells with 1 μM exemplary compound compared to DMSO vehicle control. Degradation activity of the exemplary compounds of Table 2 is expressed as % DMSO control. […] However, the effect of bifunctional targeting degraders, shown in FIG. 5, required the intact E3 ligase binding domain.
Trex293 (doxycycline inducible) cells stably expressing human α-SYN A53T (monoclonal) were plated in poly-d-lysine coated T-75 tissue culture flasks (4.5×10e6 cells/flask) in DMEM with 10% tet-free FBS, 10 μg/ml blasticidin, and 400 μg/ml zeocin. After an overnight incubation, the cells were induced to express α-SYN by treatment with 1 μg/ml doxycycline (Dox) and exemplary bifunctional compound. After a 24 hour dox induction, the medium on the cells was changed to Opti-MEM followed by treatment with α-SYN pre-formed fibrils** (PFFs)(5 μg/flask) pre-complexed with Lipofectamine 2000 transfection reagent for 4 hours. After PFF treatment, the medium was changed back to DMEM with the supplements described above and exemplary bifunctional compound for 48 hours.
Cell pellets were harvested from each flask using 0.25% trypsin followed by spinning at 500×g for 5 minutes. Each pellet was resuspended in 1 ml cold buffer H [Buffer H-10 mM Tris, 1 mM EGTA, 0.8M NaCl, 10% sucrose, pH7.4 containing 1× protease and phosphatase inhibitors] containing protease and phosphatase inhibitors. The resuspended pellets were incubated on ice for 20 minutes followed by centrifugation at 27,200×g for 20 minutes at 4° C. The supernatants were adjusted to 1% sarkosyl (Sigma) and 1% 2-mercaptoethanol followed by incubation for 1 hour at 37° C. on an orbital shaker set to 400 rpm. The samples were then spun at 150,000×g for 35 minutes at room temperature. The supernatant was removed and saved as the soluble fraction and the insoluble pellet was resuspended in 25 μl tris-buffered saline (TBS). Protein concentrations were determined by NanoDrop, and normalized protein concentrations were analyzed by WES capillary electrophoresis as well as an α-SYN oligomer ELISA.
Recombinant human α-SYN was purchased from Proteos. 1 mg aliquots were supplied at 10 mg/ml in 10 mM Tris, 50 mM NaCl, pH7.6. The aliquot was thawed on ice followed by centrifugation at 4° C. for 10 minutes at 12,000×g to pellet any insoluble material. The supernatant was removed and quantitated on a NanoDrop (A280) using Beer's Law (ε=5960 M-1 cm-1). The concentration was adjusted to 5 mg/ml in PBS followed by vortexing for 3 seconds to mix contents. The mixture was incubated in an orbital shaker set to 37° C. at 1,000 rpm for 7 days followed by aliquoting into individual use vials. Prior to addition to cells, an aliquot was thawed at room temperature, then diluted to 1 mg/ml with phosphate-buffered saline (PBS) followed by sonication for 1 minute with a probe sonicator (output 1; 90% duty cycle) in a chem hood.
Coming Costar high bind black well plates were coated with MJFR 14-6-4-2 (Abcam) at 1 μg/ml for 1 hour at 37° C. followed by washing with 1×TBS+0.1% tween-20 (TBS-T) then blocking with 3% bovine serum albumin (BSA) in TBS. After re-washing, samples were added after dilution in diluent (1% BSA/TBS-T). Non-sonicated PFF was used to generate a standard curve. The plates were incubated with sample overnight at 4° C. with shaking. The following day alkaline phosphatase (AP) conjugated MJFR 14-6-4-2 was added to the plate without washing followed by incubation at room temperature for 1 hour with shaking or rocking. The plates were then re-washed and substrate (CDP star alkaline phosphatase detection reagent) was added followed by a 30 minute incubation at room temperature. The plate was read on a luminescence plate reader. The counts were log transformed and read off the standard curve. […]

remaining activity at 1 µM [%]	SMILES
35 to 70	CNc1ccc(-c2nc3ccc(OCCOCCOCCOCCOCC(=O)N[C@H](C(=O)N4C[C@H](O)C[C@H]4C(=O)N[C@@H](C)c4ccc(-c5scnc5C)cc4)C(C)(C)C)cc3s2)cc1 [Exemplary Compound 3, (2S,4R)-1-((S)-2-(tert-butyl)-17-((2-(4-(methylamino)phenyl)benzo[d]thiazol-6-yl)oxy)-4-oxo-6,9,12,15-tetraoxa-3-azaheptadecanoyl)-4-hydroxy-N-((S)-1-(4-(4-methylthiazol-5-yl)phenyl)ethyl)pyrrolidine-2-carboxamide]
35 to 70	O=C1CCC(N2C(=O)c3ccc(OCCOCCOCCOCCOCCOc4ccc5c(c4)Sc4cc([N+](=O)[O-])ccc4N5)cc3C2=O)C(=O)N1 (stereo not drawn) [Exemplary Compound 14, 2-(2,6-dioxopiperidin-3-yl)-5-((14-((7-nitro-10H-phenothiazin-3-yl)oxy)-3,6,9,12-tetraoxatetradecyl)oxy) isoindoline-1,3-dione]
70 to 120	CN(CCCN1c2ccccc2Sc2ccccc21)CCOCCOCCOCCOc1ccc2c(c1)C(=O)N(C1CCC(=O)NC1=O)C2=O (stereo not drawn) [Exemplary Compound 16, 2-(2,6-dioxo-3-piperidyl)-5-[2-[2-[2-[2-[methyl(3-phenothiazin-10-ylpropyl)amino]ethoxy]ethoxy]ethoxy]ethoxy]isoindoline-1,3-dione]
35 to 70	COc1cc(/C=C/c2ccc3cc(OCCOCCOCCOCC(=O)N[C@H](C(=O)N4C[C@H](O)C[C@H]4C(=O)N[C@@H](C)c4ccc(-c5scnc5C)cc4)C(C)(C)C)ccc3n2)ccn1 [Exemplary Compound 35, (2S,4R)-1-((S)-2-(tert-butyl)-14-((2-((E)-2-(2-methoxypyridin-4-yl)vinyl)quinolin-6-yl)oxy)-4-oxo-6,9,12-trioxa-3-azatetradecanoyl)-4-hydroxy-N—((S)-1-(4-(4-methylthiazol-5-yl)phenyl)ethyl)pyrrolidine-2-carboxamide]
35 to 70	COc1ccc2nc(-c3ccc(N4CC(OC5CCN(CCN6CCN(c7ccc8c(c7)C(=O)N(C7CCC(=O)NC7=O)C8=O)CC6)CC5)C4)cc3)sc2c1 (stereo not drawn) [Exemplary Compound 26, 2-(2,6-dioxopiperidin-3-yl)-5-(4-[2-[4-([1-[4-(6-methoxy-1,3-benzothiazol-2-yl)phenyl]azetidin-3-yl]oxy)piperidin-1-yl]ethyl]piperazin-1-yl)-2,3-dihydro-1H-isoindole-1,3-dione]
> 120	Cc1ncsc1-c1ccc([C@H](C)NC(=O)[C@@H]2C[C@@H](O)CN2C(=O)[C@@H](NC(=O)COCCOCCOCCOCCOCCOc2ccc3c(c2)Sc2cc([N+](=O)[O-])ccc2N3)C(C)(C)C)cc1 [Exemplary Compound 11, (2S,4R)-1-((S)-2-(tert-butyl)-20-((7-nitro-10H-phenothiazin-3-yl)oxy)-4-oxo-6,9,12,15,18-pentaoxa-3-azaicosanoyl)-4-hydroxy-N-((S)-1-(4-(4-methylthiazol-5-yl)phenyl)ethyl)pyrrolidine-2-carboxamide]
35 to 70	CN(CCCN1c2ccccc2Sc2ccccc21)CCOCCOCCOc1ccc2c(c1)C(=O)N(C1CCC(=O)NC1=O)C2=O (stereo not drawn) [Exemplary Compound 15, 5-(2-(2-(2-((3-(10H-phenothiazin-10-yl)propyl)(methyl)amino)ethoxy)ethoxy)ethoxy)-2-(2,6-dioxopiperidin-3-yl)isoindoline-1,3-dione]
< 35	CNc1ccc(-c2nc3ccc(OCCOCCOCCOCCOCCOCC(=O)N[C@H](C(=O)N4C[C@H](O)C[C@H]4C(=O)N[C@@H](C)c4ccc(-c5scnc5C)cc4)C(C)(C)C)cc3s2)cc1 [Exemplary Compound 4, (2S,4R)-1-((S)-2-(tert-butyl)-20-((2-(4-(methylamino)phenyl)benzo[d]thiazol-6-yl)oxy)-4-oxo-6,9,12,15,18-pentaoxa-3-azaicosanoyl)-4-hydroxy-N-((S)-1-(4-(4-methylthiazol-5-yl)phenyl)ethyl)pyrrolidine-2-carboxamide]

SMILES	remaining activity at 1 µM [%]
O=C1CCC(N2C(=O)c3ccc(OCCCCCN4CCC(OC5CN(CCCN6c7ccccc7Sc7ccccc76)C5)CC4)cc3C2=O)C(=O)N1 (stereo not drawn) [Exemplary Compound 22, 2-(2,6-dioxo-3-piperidyl)-5-[5-[4-[1-(3-phenothiazin-10-ylpropyl)azetidin-3-yl]oxy-1-piperidyl]pentoxy]isoindoline-1,3-dione]	35 to 70
O=C1CCC(N2C(=O)c3ccc(OCCCCCN4CCC(O[C@H]5C[C@H](Oc6ccc7c(c6)Sc6cc([N+](=O)[O-])ccc6N7)C5)CC4)cc3C2=O)C(=O)N1 (stereo partly drawn) [Exemplary Compound 19, 2-(2,6-dioxo-3-piperidyl)-5-[5-[4-[3-[(7-nitro-10H-phenothiazin-3-yl)oxy]cyclobutoxy]-1-piperidyl]pentoxy]isoindoline-1,3-dione]	35 to 70
CN(C)c1ccc(-c2nc3ccc(O[C@H]4C[C@H](OC5CCN(CCCCCOc6ccc7c(c6)C(=O)N(C6CCC(=O)NC6=O)C7=O)CC5)C4)cc3s2)cc1 (stereo partly drawn) [Exemplary Compound 27, 2-(2,6-dioxopiperidin-3-yl)-5-[(5-[4-[(1r,3r)-3-([2-[4-(dimethylamino)phenyl]-1,3-benzothiazol-6-yl]oxy)cyclobutoxy]piperidin-1-yl]pentyl)oxy]-2,3-dihydro-1H-isoindole-1,3-dione]	> 120
CN(C)c1ccc(-c2nc3ccc(O[C@H]4C[C@H](OCCCN5CCN(c6ccc7c(c6)C(=O)N(C6CCC(=O)NC6=O)C7=O)CC5)C4)cc3s2)cc1 (stereo partly drawn) [Exemplary Compound 24, 2-(2,6-dioxopiperidin-3-yl)-5-(4-[3-[(1r,3r)-3-([2-[4-(dimethylamino)phenyl]-1,3-benzothiazol-6-yl]oxy)cyclobutoxy]propyl]piperazin-1-yl)-2,3-dihydro-1H-isoindole-1,3-dione]	> 120
Cc1ncsc1-c1ccc([C@H](C)NC(=O)[C@@H]2C[C@@H](O)CN2C(=O)[C@@H](NC(=O)CN2CCN(CCN3CCC(O[C@H]4C[C@H](Oc5ccc6c(c5)Sc5cc([N+](=O)[O-])ccc5N6)C4)CC3)CC2)C(C)(C)C)cc1 [Exemplary Compound 34, (2S,4R)-1-((S)-3,3-dimethyl-2-(2-(4-(2-(4-((1r,3r)-3-((7-nitro-10H-phenothiazin-3-yl)oxy)cyclobutoxy)piperidin-1-yl)ethyl)piperazin-1-yl)acetamido)butanoyl)-4-hydroxy-N-((S)-1-(4-(4-methylthiazol-5-yl)phenyl)ethyl)pyrrolidine-2-carboxamide]	< 35
O=C1CCC(N2C(=O)c3ccc(N4CCN(CCN5CCC(O[C@H]6C[C@H](Oc7ccc8c(c7)Sc7cc([N+](=O)[O-])ccc7N8)C6)CC5)CC4)cc3C2=O)C(=O)N1 (stereo partly drawn) [Exemplary Compound 18, 2-(2,6-dioxo-3-piperidyl)-5-[4-[2-[4-[3-[(7-nitro-10H-phenothiazin-3-yl)oxy]cyclobutoxy]-1-piperidyl]ethyl]piperazin-1-yl]isoindoline-1,3-dione]	70 to 120
O=C1CCC(N2C(=O)c3ccc(N4CCN(CCCO[C@H]5C[C@H](Oc6ccc7c(c6)Sc6cc([N+](=O)[O-])ccc6N7)C5)CC4)cc3C2=O)C(=O)N1 (stereo partly drawn) [Exemplary Compound 30, 2-(2,6-dioxo-3-piperidyl)-5-[4-[3-[3-[(7-nitro-10H-phenothiazin-3-yl)oxy]cyclobutoxy]propyl]piperazin-1-yl]isoindoline-1,3-dione formate]	35 to 70
